{"source": "patent EP2108954A1", "about": "“A test system for detecting intracellular cyclic nucleotide level and methods and uses thereof” (Max-Planck-Gesellschaft zur Förderung der Wissenschaften …, priority 2008, dated 2009)", "biological_target": "T1, Or83b (Drosophila melanogaster, UniProt Q9VNB5)", "T1 sequence (Q9VNB5 1-486)": "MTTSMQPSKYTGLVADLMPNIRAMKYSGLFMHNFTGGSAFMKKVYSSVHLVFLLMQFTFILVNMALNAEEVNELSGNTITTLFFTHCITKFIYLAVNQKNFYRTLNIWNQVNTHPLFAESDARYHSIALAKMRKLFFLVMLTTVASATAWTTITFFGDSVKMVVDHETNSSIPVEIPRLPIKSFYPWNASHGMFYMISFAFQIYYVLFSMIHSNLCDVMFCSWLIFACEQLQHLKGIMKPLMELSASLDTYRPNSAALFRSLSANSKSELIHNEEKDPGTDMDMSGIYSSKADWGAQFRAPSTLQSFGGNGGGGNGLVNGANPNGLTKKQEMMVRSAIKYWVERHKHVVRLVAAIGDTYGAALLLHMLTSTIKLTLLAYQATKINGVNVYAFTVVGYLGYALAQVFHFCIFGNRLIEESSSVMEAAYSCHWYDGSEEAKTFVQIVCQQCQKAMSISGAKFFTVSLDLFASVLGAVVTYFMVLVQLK", "assay": "Whole-cell patch-clamp of HEK293 cells expressing Or83b alone", "assay_type": "cell-based", "parameters": "expressed in transfected cells; host or cells: HEK293", "conditions": "HEK293 cells transfected with Or83b alone; whole-cell, -60 mV; n = 6", "experimental": "In some experiments we transfected cells with pcDNA3-DOR22a-GFP or pcDNA3-DOR83b-GFP alone. We also examined the properties of DOR47a, which was cloned, using standard molecular biology methods into a pcDNA3.1(-) expression vector. To test for putative G-protein coupling, cells were transfected with the respective OR-DNA together with 1.5 µg hHCN2/pcDNA3 (provided by M. Biel, Munich, Germany), with 1 µg hKCNQ4/pcDNA3.1 or with 1 µg hCNGA2/pCMV6-XL4 (Origene, Rockville, MD, USA).\nIn brief, ion currents in HEK293 cells were measured at room temperature using whole-cell patch-clamp with appropriate compensation of series resistance and of capacitive currents. Additional experiments were performed in the outside-out configuration. Current measurements and data acquisition were performed using an EPC9 patch-clamp amplifier controlled by PatchMaster software (both HEKA Elektronik, Lambrecht, Germany). Patch-clamp pipettes were fabricated from borosilicate capillaries. Pipettes for whole-cell recordings had resistances of 2-4 MΩ for excised-patch recordings the pipette resistance was up to 15 MΩ.\nTo differentiate between ionotropic and metabotropic pathways of receptor activation (Fig. 2a-d) the pipette solution contained either 2 mM ATP plus 2 mM GTP or 2 mM ADP plus 2 mM GDP (both for whole-cell and outside-out configuration). For the preparation of Cl^--free solutions the chloride salts were substituted by gluconate salts. The pipette Cs^+ solution contained (in mM) 140 CsCl, 1 Mg-ATP, 10 EGTA, 10 HEPES (pH = 7.3), and the Cs^+ bath solution contained (in mM) 140 CsCl, 15 glucose, 15 HEPES (pH = 7.4). The Ca^2+-free bath solution contained (in mM) 140 NaCl, 15 glucose, 15 HEPES, and the Na^+-free bath solution contained (in mM) 140 NMDG-Cl, 10 CaCl2, 10 glucose, 15 HEPES.\nWith the exception of GDP-γ-S, which was applied via the patch pipette, all substances were applied to the bath using either a bath perfusion system (BPS4 from ALA, New York, USA) or a rapid solution changer (RSC160 from Biologic, Claix, France) which were controlled by the PatchMaster software (HEKA Elektronik)."}
{"compound": "CCCC(=O)OCC", "note": "[Etb, ethyl butyrate]", "values": [{"measurement": "inward current upon short Etb application", "value": "no current was observed"}]}
